Results from patent US20030124127A1, “Targeting leukemia cells” (priority 2001, published 2003).

Experiments:
[1] = system: NB4 cells; assay: Western blot analysis of CD52 protein in NB4 cells; assay type: cell-based, human; conditions: ATRA-treated vs untreated
Description: Western blot analysis. Cell lysates from control and ATRA-treated NB4 cells were separated on a 4%-20% gradient SDS-polyacrylamide gel and then transferred to PVDF membrane (Millipore, Bedford, Mass.) using a semidry electroblot chamber. The membrane was blocked overnight with 5% dry-milk in Tris-buffered saline and then incubated with anti-CD52 antibody (Serotec, Inc., Raleigh, N.C.) for 1 hour at room temperature. The binding of primary antibody was detected by using peroxidase-coupled second antibody (Sigma). Bound peroxidase was detected by the Super Signal Substrate (Pierce, Rockford, Ill.).

[2] = system: newly diagnosed APL; conditions: ATRA therapy; cited from earlier work
[3] = system: NB4 cells; assay: RT-PCR analysis of CD52 mRNA in NB4 cells; assay type: cell-based, human; conditions: ATRA 12-96 hr, not detectable in untreated cells
Description: (§1) Reverse transcriptase (RT)-PCR. NB4 cells were cultured and treated with or without ATRA as described above. Some assays were performed using other cell lines including the erythroblastic leukemia cell line K562, the monocytic leukemia cell line U937 and the HL-60 cell line, a human myeloblastic leukemia cell line lacking the t(15; 17) translocation. Total RNA was isolated from the cells and used for CD52 cDNA synthesis by RT-PCR. The cDNA was synthesized in a 20 μl reaction mixture containing 5 μg RNA, 5 mM dNTP, 0.1 μg random primers and 200 U reverse transcriptase, and the mixture was incubated at 42° C. for 1 hr. The cDNA was amplified for 30 cycles with denaturation at 94° C. for 30 seconds, annealing at 56° C. for 30 seconds and extension at 72° C. for 1 min. Amplified products were sequenced and confirmed by comparison with sequence data from GenBank.

[4] = system: NB4 cells; assay: ATRA-induced NB4 cell differentiation (morphology, CD11B/CD16 flow cytometry, NBT reduction test); assay type: cell-based, human; conditions: 1 μM ATRA
Description: (§2) Leukemia cell lines. NB4 cells were a gift (Dr. James R. Downing, St. Jude Children's Research Hospital) and other leukemia cell lines (K562, U937 and HL-60) were purchased from ATCC (Manassas, Va.). All leukemia cell lines were cultured in RPMI 1640 medium plus 10% fetal calf serum. Cells (1×10^6) were treated with or without 1 μM ATRA (Sigma, St. Louis, Mo.) for 12, 24, 48, 72, and 96 hours at 37° C. in a 5% CO2 incubator in darkness. All experiments were repeated three times.
(§3) Assessment of cell differentiation. ATRA-induced NB4 cell differentiation was evaluated by morphological assessment, by flow cytometry for expression of cell surface antigens related to granulocytic differentiation and maturation such as CD11B/CD18-integrins (Gahmberg C G, Curr. Opin. Cell Biol. 9: 643-650, 1997) and by the nitroblue tetrazolium (NBT) reduction test, which measures myelocyte maturity (Idres N et al., Cancer Res. 61: 700-705, 2001). For cell cycle analysis, the cells were stained with propidium iodide (PI) and analyzed by a fluorescence-activated cell sorting analysis.

[5] = system: NB4 cells; assay: Cell cycle analysis of ATRA-treated NB4 cells (propidium iodide, flow cytometry); assay type: cell-based, human; conditions: 1 μM ATRA, 12-96 hrs, PI staining
Description: as §2, §3

[6] = system: NB4 cells; assay: cDNA microarray analysis of ATRA-induced NB4 cell gene expression; conditions: 96 hr
[7] = system: erythroblastic leukemia line K562; assay: Cell specificity of CD52 induction by ATRA, flow cytometry, K562; assay type: cell-based; conditions: K562, ATRA 96 hours
Description: as §2
(§4) Flow cytometry. APL cells were treated as described above with 1 μM of ATRA for 24, 48, 72, and 96 hrs, and cell differentiation was evaluated by changes in cell morphology, CD11B and CD18 expression, and the NBT reduction test. ATRA treated cells (1×10^6) were stained with CD18-FITC (Becton Dickinson Biosciences San Jose, Calif.), CD11B-PE, and CD52-FITC antibodies (both from Serotec) following manufacturer's instructions. […] Samples were analyzed in triplicate.
(§5) Cell specificity of CD52 expression induction by ATRA. To determine the cell specificity of ATRA-induced CD52 expression, other leukemia cell lines were tested and compared with NB4 under assay conditions used for the NB4 cells.

[8] = system: NB4 cells; assay: Flow cytometry of CD52, CD11B, CD18 surface expression in NB4 cells
[9] = system: HL-60 cells; assay: Cell specificity of CD52 induction by ATRA, flow cytometry, HL-60; assay type: cell-based, human; conditions: HL-60, lacking t(15;17), ATRA 96 hours
Description: as §2
as §1, with “The cDNA was amplified for 30 cycles with denaturation at 94° C. for 30 seconds, annealing at 56° C. for 30 seconds and extension at 72° C. for 1 min. Amplified products were sequenced and confirmed by comparison with sequence data from GenBank.” left out
Flow cytometry. APL cells were treated as described above with 1 μM of ATRA for 24, 48, 72, and 96 hrs, and cell differentiation was evaluated by changes in cell morphology, CD11B and CD18 expression, and the NBT reduction test. […] Samples were analyzed in triplicate. […]

[10] = system: monocytic leukemia cell line U937; assay: Cell specificity of CD52 induction by ATRA, flow cytometry, U937; assay type: cell-based; conditions: U937, ATRA 96 hours
Description: as §2, §4, §5

[11] = cited from earlier work
[12] = system: normal and malignant lymphocytes; conditions: clinical studies; cited from earlier work

## CC1=C(/C=C/C(C)=C/C=C/C(C)=C/C(=O)O)C(C)(C)CCC1 [ATRA, all-trans-retinoic acid]
[1]
  CD52 protein bands of 21-28 kDa: only detected in ATRA-treated cells
[2]
  complete remission of patients: up to 85%
[3]
  expression of CD52 mRNA: rapidly induced
[4]; 24 to 96 hrs and later
  maximal differentiation (CD11B+ and NBT+ cells): 85%
[4]; end of 24 hrs
  morphologic change in NB4 cells: No obvious morphologic change
[4]; flow cytometry
  CD16 expression: failed to express CD16
[5]
  S-phase cells: decrease of S-phase cells
[6]; 1 μM ATRA, peak
  CD52 mRNA expression, fold over control: 6.49 fold
[6]; ATRA
  expression of gene gf206—339D4, fold of control: more than 58 fold
[7]
  CD11B expression: did not induce
  CD52 expression: did not induce
[8]; 1 μM ATRA, 48 to 96 hr
  maximal CD52 surface expression: ~90%
[8]; 96 hr of ATRA exposure
  cell population co-expressing CD11B and CD52: approximately 80%
  cells expressing only CD11B: approximately 10%
  cells expressing only CD52: approximately 5%
[8]; NB4, ATRA 96 hours
  up-regulation of both CD11B and CD52: robust up-regulation
[9]
  CD52 up-regulation: not up-regulated
[10]
  expression of CD11B: slightly increased
  expression of CD52: did not affect

## CC1=C(/C=C/C(C)=C/C=C/C(C)=C/CO)C(C)(C)CCC1 [retinol]
[11]
  solubility in ethanol, methanol, ether, fats, and oil: soluble
  solubility in water or aqueous salt solutions: practically insoluble

## CAMPATH-1H: A humanized anti-CD52 monoclonal antibody
[12]
  depletion of normal and malignant lymphocytes in vivo: extremely effective
